Test results taken from BindingDB's records for doi:10.1016/j.bmcl.2005.08.106 (Astrazeneca, 2005).

Assay: Inhibition of Src-transfected 3T3 cell proliferation

IC50	SMILES
70 nM	COc1ccc(Cl)c(Nc2ncnc3cc(OCCCN4CCCC4)cc(OC(C)C)c23)n1 [N-(3-chloro-6-methoxypyridin-2-yl)-5-isopropoxy-7-(3-(pyrrolidin-1-yl)propoxy)quinazolin-4-amine]
350 nM	COc1cc(Nc2ncnc3cc(OCCCN4CCOCC4)cc(OC(C)C)c23)c(Cl)cn1 [N-(5-chloro-2-methoxypyridin-4-yl)-5-isopropoxy-7-(3-morpholinopropoxy)quinazolin-4-amine]
70 nM	COc1ccc(Cl)c(Nc2ncnc3cc(OCCCN4CCOCC4)cc(OC4CCOCC4)c23)n1 [N-(3-chloro-6-methoxypyridin-2-yl)-7-(3-morpholinopropoxy)-5-(tetrahydro-2H-pyran-4-yloxy)quinazolin-4-amine]
140 nM	COc1cnc(Cl)c(Nc2ncnc3cc(OCCCN4CCOCC4)cc(OC4CCOCC4)c23)c1 [N-(2-chloro-5-methoxypyridin-3-yl)-7-(3-morpholinopropoxy)-5-(tetrahydro-2H-pyran-4-yloxy)quinazolin-4-amine]
60 nM	COc1ccc(Cl)c(Nc2ncnc3cc(OCCCN4CCN(C)CC4)cc(OC(C)C)c23)n1 [N-(3-chloro-6-methoxypyridin-2-yl)-5-isopropoxy-7-(3-(4-methylpiperazin-1-yl)propoxy)quinazolin-4-amine]
120 nM	COc1ccc(Cl)c(Nc2ncnc3cc(OCCN4CCOCC4)cc(OC(C)C)c23)n1 [N-(3-chloro-6-methoxypyridin-2-yl)-5-isopropoxy-7-(2-morpholinoethoxy)quinazolin-4-amine]
20 nM	COc1ccc(Cl)c(Nc2ncnc3cc(OCCCN4CCN(C(C)=O)CC4)cc(OC(C)C)c23)n1 [1-(4-(3-(4-(3-chloro-6-methoxypyridin-2-ylamino)-5-isopropoxyquinazolin-7-yloxy)propyl)piperazin-1-yl)ethanone]
120 nM	COc1ccc(Cl)c(Nc2ncnc3cc(OCCN4CCCC4)cc(OC(C)C)c23)n1 [N-(3-chloro-6-methoxypyridin-2-yl)-5-isopropoxy-7-(2-(pyrrolidin-1-yl)ethoxy)quinazolin-4-amine]
60 nM	COc1ccc(Cl)c(Nc2ncnc3cc(OCCN4CCN(C(C)=O)CC4)cc(OC(C)C)c23)n1 [1-(4-(2-(4-(3-chloro-6-methoxypyridin-2-ylamino)-5-isopropoxyquinazolin-7-yloxy)ethyl)piperazin-1-yl)ethanone]
70 nM	COc1cnc(Cl)c(Nc2ncnc3cc(OCCN4CCN(C(C)=O)CC4)cc(OC(C)C)c23)n1 [1-(4-(2-(4-(3-chloro-6-methoxypyrazin-2-ylamino)-5-isopropoxyquinazolin-7-yloxy)ethyl)piperazin-1-yl)ethanone]
150 nM	COc1cnc(Cl)c(Nc2ncnc3cc(OCCCN4CCOCC4)cc(OC(C)C)c23)c1 [N-(2-chloro-5-methoxypyridin-3-yl)-5-isopropoxy-7-(3-morpholinopropoxy)quinazolin-4-amine]
150 nM	COc1ccc(Cl)c(Nc2ncnc3cc(OCCCN4CCOCC4)cc(OC(C)C)c23)c1 [N-(2-chloro-5-methoxyphenyl)-7-[3-(morpholin-4-yl)propoxy]-5-(propan-2-yloxy)quinazolin-4-amine]
30 nM	COc1ccc(Cl)c(Nc2ncnc3cc(OCCCN4CCOCC4)cc(OC(C)C)c23)n1 [N-(3-chloro-6-methoxypyridin-2-yl)-5-isopropoxy-7-(3-morpholinopropoxy)quinazolin-4-amine]
